The text below walks through data of patent US4173648A, “3β-Hydroxy-18β-olean-9-en-30-oic acids” (I.S.F. SpA, priority 1977, dated 1979).

In one data set the test system is male Wistar rats. Nature of the data set: anti-diuretic action, urinary sodium and potassium (method of F. M. Sullivan). In kind it is in vivo, rat (Wistar). Particulars: for Na+/K+ ratio (urine): gastric probe, urine of five hours after treatment; for % inhibition of the ratio Na+/K+: ratio in controls = 100. The protocol:
The urine produced in the five hours after treatment are collected and the potassium and sodium contents are determined. The tests were carried out at two dosage levels, 30 and 60 mg/kg, using, for each dosage level, 8 pairs of animals.

The nature of data set [1]: LD50 in mice per os (acute toxicity). Particulars: mouse, in vivo, po.
The subject of a further data set is male Swiss mice. Nature of the data set: anti-ulcer action, cold stress by immersion in water and contention stress (method of C. J. Pfeiffer). In kind it is in vivo, mouse (Swiss). Particulars: controls = 100. As for the experimental part: The test was carried out on male Swiss mice with an average body weight of 23 g. subjected to cold stress by immersion in water and to a contention stress according to the method of C. J. Pfeiffer ("Peptic ulcer", Munksgaard, 1971, page 84). Three dosage levels of 25, 50 and 100 mg/kg and 15 animals for each dosage level were used.
The anti-ulcer action of the compounds was evaluated by calculating the percentage average inhibition, which indicates the inhibition of the ulcer seriousness index in the treated animals, taking 100 as the seriousness index of the controls.

Counter-ions that a name gives are not always drawn.

As to `CC1(C)[C@@H](OC(=O)CCC(=O)O)CC[C@]2(C)C3=CCC4[C@@H]5C[C@@](C)(C(=O)O)CC[C@]5(C)CC[C@@]4(C)[C@]3(C)CC[C@@H]12` (stereo partly drawn) [Disodium salt of 3β-(3-carboxypropionoxy)-18β-olean-9-en-30-oic acid], the “Na+/K+ ratio (urine)” value in the data set with male Wistar rats (30 mg/kg) was determined as 3.18; with male Wistar rats (60 mg/kg) it was 3.59. In addition, the “% inhibition of the ratio Na+/K+” value in the data set on male Wistar rats (30 mg/kg) is on record as 0%; in the data set with male Wistar rats (60 mg/kg), -3%. Further, in data set [1], the LD50 (commonly the dose at which mortality reaches 50%) worked out at 1000 mg/kg. The figures for the “% average inhibition (of the ulcer seriousness index)” value in the data set with male Swiss mice (25 mg/kg os), in the data set on male Swiss mice (50 mg/kg os) and in the data set on male Swiss mice (100 mg/kg os) were 13%, 22.5% and 70.5%, respectively.
Turning to `CC1(C)[C@@H](OC(=O)CCC(=O)O)CC[C@]2(C)[C@H]3C(=O)C=C4[C@@H]5C[C@@](C)(C(=O)O)CC[C@]5(C)CC[C@@]4(C)[C@]3(C)CC[C@@H]12` [carbenoxolone, disodium salt of glycycrrhetinic acid 3-hemisuccinate], the “Na+/K+ ratio (urine)” value in the data set on male Wistar rats (30 mg/kg) stood at 1.81; in the data set with male Wistar rats (60 mg/kg), 1.24. The entries for the “% inhibition of the ratio Na+/K+” value in the data set with male Wistar rats (30 mg/kg) and with male Wistar rats (60 mg/kg) were 43% and 64%, respectively. In data set [1], this compound showed a 50% lethal dose (LD50) of 700 mg/kg. The “% average inhibition (of the ulcer seriousness index)” value in the data set with male Swiss mice (25 mg/kg os) is listed as 29.5%; in the data set with male Swiss mice (50 mg/kg os), 29%; with male Swiss mice (100 mg/kg os), 63.5%.
